In patent US8163909B2, “Substituted hydroxyethyl amine compounds as beta-secretase modulators and methods of use” (Amgen Inc., priority 2007, dated 2012) one finds IC50 data, which are given here for 15 compounds.

Read-outs that look alike come from different tables or passages of the source. Some results are limits rather than exact numbers.

Assay [1] addresses Beta Secretase enzyme (BACE) (Homo sapiens, UniProt P56817). Put plainly: In vitro enzymatic BACE FRET (fluorescence resonance energy transfer) assay.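 Further: fluorescence read after 1 h with 50 nM quenched peptide substrate spanning the BACE cleavage site, in pH 4.2 acetate buffer containing 10% DMSO and nonionic detergent.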 Format: biochemical.
Assay [2] deals with Aβ40 in conditioned medium of cells stably expressing Amyloid Precursor Protein (APP). In words: In vitro BACE cell-based assay (Aβ40 in conditioned medium, sandwich ELISA).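 Further: compounds added as a dilution series, secreted peptide quantified by europium time-resolved fluorescence readout, potency fitted from percent of control versus compound concentration.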
Where [3] appears, read: BACE enzyme assay, read-out: BACE1 FRET assay (IC50).
The mark [4] stands for this setting: Homo sapiens, HEK293, HEK cells, cell-based assay, read-out: HEK cell assay (IC50).
Setting [5] is: Table 1, read-out: BACE1 FRET assay.
Setting [6] is: Homo sapiens, HEK293, Table 1, HEK cells, read-out: HEK cell assay.
Setting [7] is: BACE enzyme FRET assay, read-out: BACE1 FRET assay (IC50).
[8] abbreviates: HEK cells, cell-based assay, read-out: HEK cell assay (IC50).

Beta Secretase enzyme (BACE), sequence (P56817 46-501): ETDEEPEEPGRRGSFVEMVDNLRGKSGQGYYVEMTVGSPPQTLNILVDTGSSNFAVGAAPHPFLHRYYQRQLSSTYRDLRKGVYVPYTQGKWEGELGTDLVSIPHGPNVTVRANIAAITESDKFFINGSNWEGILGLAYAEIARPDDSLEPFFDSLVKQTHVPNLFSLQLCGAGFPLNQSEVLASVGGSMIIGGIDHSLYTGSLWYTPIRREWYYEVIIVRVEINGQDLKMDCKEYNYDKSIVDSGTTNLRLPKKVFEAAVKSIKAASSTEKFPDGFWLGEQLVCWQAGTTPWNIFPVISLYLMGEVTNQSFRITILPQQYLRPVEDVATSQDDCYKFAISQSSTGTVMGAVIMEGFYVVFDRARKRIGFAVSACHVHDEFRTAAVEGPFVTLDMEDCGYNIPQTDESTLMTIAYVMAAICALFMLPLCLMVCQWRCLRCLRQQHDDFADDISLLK

On to `CC(C)(C)Cc1cnc2c(c1)[C@@H](NC[C@@H](O)[C@H](Cc1ccc(F)cc1)NC(=O)[C@@H](O)C(F)(F)F)CC1(CCC1)O2` [compound 69], for which the IC50 in assay [1] (setting [3]) was 0.0336 µM; in assay [2] (setting [4]) it was 0.0784 µM.

Take `CO[C@@H](C)C(=O)N[C@@H](Cc1cccc(F)c1)[C@H](O)CN[C@H]1CC2(CCC2)Oc2ncc(CC(C)(C)C)cc21` [compound 361]: the IC50 in assay [1] (setting [5]) worked out at 0.00658 µM; in assay [2] (setting [6]), 0.00923 µM.

As for `COC(C)C(=O)NC(Cc1ccc2c(c1)OCO2)C(O)CNC1CC2(CC(O)C2)Oc2cnccc21` [compound 243, (2R)—N-((1S,2R)-1-(1,3-benzodioxol-5-ylmethyl)-2-hydroxy-3-(((1s,3S,4′S)-3-hydroxy-3′,4′-dihydrospiro[cyclobutane-1,2′-pyrano[2,3-c]pyridin]-4′-yl)amino)propyl)-2-(methyloxy)propanamide], the IC50 was determined as 36.1 µM in assay [1] (setting [7]) and 3.33 µM in assay [2] (setting [8]).

On to `CNc1nc(CC(C)(C)C)cc2c1OC1(CCC1)C[C@@H]2N(C)C[C@@H](O)[C@H](Cc1ccc2c(c1)OCO2)NC(=O)[C@@H](C)OC` [compound 145], for which the IC50 in assay [1] (setting [3]) is 0.298 µM; in assay [2] (setting [4]) it was 0.777 µM.

Turning to `COCC(=O)NC(Cc1ccc2c(c1)OCO2)C(O)CNC1CC2(CC(O)C2)Oc2ncc(CC(C)C)cc21` [compound 246, N-((1S,2R)-1-(1,3-benzodioxol-5-ylmethyl)-2-hydroxy-3-(((1s,3S,4′S)-3-hydroxy-6′-(2-methylpropyl)-3′,4′-dihydrospiro[cyclobutane-1,2′-pyrano[2,3-b]pyridin]-4′-yl)amino)propyl)-2-(methyloxy)acetamide], the IC50 in assay [1] (setting [7]) came to 0.0135 µM; in assay [2] (setting [4]), 0.0164 µM.

Regarding `COCC(=O)N[C@@H](Cc1ccc2c(c1)OCO2)[C@H](O)CN[C@H]1CC2(CCC2)Oc2cnc(C(F)(F)F)cc21` [compound 266], the IC50 came out at 7.47 µM in assay [1] (setting [7]) and 1.25 µM in assay [2] (setting [4]).

`CO[C@H](C)C(=O)N[C@@H](Cc1cc(F)c2c(c1)OCO2)[C@H](O)CN[C@H]1CC2(CCC2)Oc2ncc(CC(C)(C)C)cc21` [compound 303]: the IC50 in assay [1] (setting [7]) worked out at 0.00901 µM; in assay [2] (setting [4]), 0.0214 µM.

Turning to `CO[C@H](C)C(=O)N[C@@H](Cc1ccc(Cl)c(F)c1)[C@H](O)CN[C@H]1CC2(CCC2)Oc2ncc(CC(C)(C)F)cc21` [compound 70], the IC50 in assay [1] (setting [3]) was 0.0558 µM; in assay [2] (setting [4]) it was 0.138 µM.

Take `COCC(=O)NC(Cc1cccc(F)c1)C(O)CNC1CC2(CC(O)C2)Oc2cnccc21` [compound 236, N-((1S,2R)-1-((3-fluorophenyl)methyl)-2-hydroxy-3-(((1r,3R,4′S)-3-hydroxy-3′,4′-dihydrospiro[cyclobutane-1,2′-pyrano[2,3-c]pyridin]-4′-yl)amino)propyl)-2-(methyloxy)acetamide]: the IC50 in assay [1] (setting [7]) was determined as 5.18 µM; in assay [2] (setting [8]), 0.27 µM.

`CO[C@H](C)C(=O)N[C@@H](Cc1cc(F)cc(Cl)c1)[C@H](O)CN[C@H]1CC2(CCC2)Oc2ccc(CC(C)C)cc21` [compound 805]: the IC50 in assay [1] (BACE enzyme assay, IC50's in uM, read-out: BACE1 FRET assay) is 0.003 µM; in assay [2] (Homo sapiens, HEK293, HEK cell-based assay, IC50's in uM, read-out: HEK cell assay), 0.07 µM.

With `CC(C)(C)Cc1cnc2c(c1)[C@@H](NC[C@@H](O)[C@H](Cc1ccc3c(c1)OCO3)NC(=O)OCc1cncs1)CC1(CCC1)O2` [compound 101], the IC50 was 0.159 µM in assay [1] (setting [3]) and 1.85 µM in assay [2] (setting [8]).

`CCC(=O)Nc1cnc2c(c1)[C@@H](NC[C@@H](O)[C@H](Cc1ccc(F)cc1)NC(C)=O)CC1(CCC1)O2` [compound 85]: the IC50 in assay [1] (setting [3]) is 0.89 µM; in assay [2] (setting [4]), > 10 µM.

On to `CO[C@H](C)C(=O)N[C@@H](Cc1ccc2c(c1)OCO2)[C@H](O)CN[C@H]1CC2(CCC2)Oc2ncc(CCC(F)(F)F)cc21` [compound 194], for which the IC50 was 1.07 µM in assay [1] (setting [7]) and 1.52 µM in assay [2] (setting [4]).

Consider `CC(=O)N[C@@H](Cc1ccccc1)[C@H](O)CN[C@H]1CC2(CCC2)Oc2ncc(C[C@@H](C)C(F)(F)F)cc21` [compound 317], for which the IC50 in assay [1] (setting [5]) amounted to 0.0197 µM; in assay [2] (setting [6]), 0.0278 µM.

Take `COCC(=O)N[C@@H](Cc1ccc2c(c1)OCO2)[C@H](O)CN[C@H]1CC2(CCC2)Oc2ncc(CC(C)(C)F)cc21` [compound 285]: the results for the IC50 in assay [1] (setting [7]) and in assay [2] (setting [4]) were 0.057 µM and 0.0738 µM, respectively.
